Source: PubChem BioAssay (NCI)
Values joined by “and” are separate entries in the source; they are usually repeats but may differ in a detail not shown here. Identical values can stand only once.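 Each compound was tested at five concentrations against cells in 96-well plates for 48 hours. GI50 = concentration required for 50% inhibition of growth. Definition used: TGI = concentration required for complete inhibition of growth.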

Assays:
Test in all cases: NCI tumour cell line growth inhibition, 48 h
SK-MEL-2 melanoma = test system: SK-MEL-2 melanoma
UACC-257 melanoma = test system: UACC-257 melanoma
COLO 205 colon = test system: COLO 205 colon
SF-539 CNS = test system: SF-539 CNS
TK-10 renal = test system: TK-10 renal
SR leukemia = test system: SR leukemia
CCRF-CEM leukemia = test system: CCRF-CEM leukemia
MCF7 breast = test system: MCF7 breast
HT29 colon = test system: HT29 colon
LOX IMVI melanoma = test system: LOX IMVI melanoma
SF-295 CNS = test system: SF-295 CNS
MDA-MB-231 breast = test system: MDA-MB-231 breast
K-562 leukemia = test system: K-562 leukemia

Structure (SMILES) | TGI (SK-MEL-2 melanoma) | TGI (UACC-257 melanoma) | TGI (COLO 205 colon) | TGI (SF-539 CNS) | TGI (TK-10 renal) | TGI (SR leukemia) [µM] | TGI (CCRF-CEM leukemia) [µM] | TGI (MCF7 breast) [µM] | TGI (HT29 colon) | TGI (LOX IMVI melanoma) | TGI (SF-295 CNS) | TGI (MDA-MB-231 breast) [µM] | TGI (K-562 leukemia) | GI50 (SK-MEL-2 melanoma) | GI50 (UACC-257 melanoma) | GI50 (COLO 205 colon) | GI50 (TK-10 renal) | GI50 (SR leukemia) | GI50 (K-562 leukemia)
O=C1NC(=NC2CCCCC2)C2(CCN(CCCC3(c4ccc(F)cc4)OCCO3)CC2)N1c1ccccc1 | 30.2 µM | 28.7 µM | 38.4 µM | 30.7 µM | 32.7 µM | 31.4 | > 100 | 48.3 | 33.1 µM | 39 µM | 35.1 µM | – | – | – | – | – | – | – | –
COC(=O)c1c(O)ccc2c1c1c(n2-c2ccc(OC)cc2)C(=O)c2ccccc2C1=O | > 100 µM | > 100 µM | 3.52 µM | 29.9 µM | 39.5 µM | – | > 100 | 72.4 | 15.2 µM | > 100 µM | 44.1 µM | 32.7 | > 100 µM | – | – | – | – | – | –
CCCCCCCSCC1C(=O)C23C(O)C1CCC2C12COC3(O)C(O)C1C(C)(C)CCC2O (stereo not drawn) | 29.8 µM | 19.4 µM | 15.1 µM | 29.3 µM | 29.5 µM | 23.6 | 14 | – | 30 µM | 29.2 µM | 33.4 µM | – | 15.8 µM | – | – | – | – | – | –
COC1=CC(=O)[C@]2(C)[C@H](C1=O)C(C)[C@H]2c1ccccc1 (stereo partly drawn) | > 100 µM | > 100 µM | > 100 µM | > 100 µM | > 100 µM | > 100 | > 100 | – | > 100 µM | > 100 µM | > 100 µM | – | > 100 µM | – | – | – | – | – | –
O=C1c2ccccc2-c2c1c(-c1ccccc1)c1n2C2(C(=O)c3ccccc3C2=O)C2C(=O)N(c3ccccc3)C(=O)C12 (stereo not drawn) | 51.4 µM | > 100 µM | 50.7 µM | 37.5 µM | > 100 µM | – | 60 | 73.4 | 41.6 µM | 32.8 µM | > 100 µM | – | – | – | – | – | – | – | –
CC[N+]1(C)CCC(O)(/C=C/c2ccc(Cl)cc2)C(C(=O)/C=C/c2ccc(Cl)cc2)C1 (stereo not drawn) | 39 µM | > 52 µM | > 26.5 µM | > 20.5 µM | 13 µM | – | 3.85 | > 36.6 | 14.1 µM | > 21.6 µM | 37 µM | > 31.5 | 5.71 µM | – | – | – | – | – | –
COc1ccc2c(c1)N=C1CSC(c3c(Cl)cccc3[N+](=O)[O-])N1C2 (stereo not drawn) | > 100 µM | > 100 µM | > 100 µM | > 100 µM | > 100 µM | – | – | > 100 | > 100 µM | > 100 µM | > 100 µM | > 100 | > 100 µM | – | – | – | – | – | –
ClCc1ccc2ccc3ccc(CCl)nc3c2n1 | 4.81 µM | 3.38 µM | 3.15 µM | 5.85 µM | – | – | 8.64 | 2.74 | 6.28 µM | 2.9 µM | 5.69 µM | – | > 100 µM | – | – | – | – | – | –
COc1cc(C2(O)c3ccccc3C3=NCCN32)cc(OC)c1OC (stereo not drawn) | > 100 µM | > 100 µM | > 100 µM | – | > 100 µM | > 100 | > 100 | – | > 100 µM | > 100 µM | > 100 µM | > 100 | > 100 µM | – | – | – | – | – | –
[C-]#[N+]C1(C(=O)OCC)CC1 | – | > 100 µM | – | > 100 µM | > 100 µM | > 100 | > 100 | > 100 | > 100 µM | > 100 µM | > 100 µM | – | > 100 µM | – | – | – | – | – | –
O=C1c2c(nc3ccccc3c2-c2ccccc2)CN1Nc1ccccc1 | > 100 µM | > 100 µM | > 100 µM | – | > 100 µM | > 100 | > 100 | – | > 100 µM | > 100 µM | – | – | > 100 µM | – | – | – | – | – | –
C/C(=N\O)C(CN1CCCCC1)C(c1ccccc1)c1c(O)c2ccccc2oc1=O (stereo not drawn) | > 100 µM | > 100 µM | > 100 µM | > 100 µM | > 100 µM | – | > 10 | – | > 100 µM | > 100 µM | > 100 µM | – | > 10 µM | – | – | – | – | – | –
N#CN1CCC=C(c2cc3ccccc3[nH]2)C1 | > 448 µM | > 448 µM | > 448 µM | > 448 µM | > 448 µM | > 448 | > 448 | – | > 448 µM | > 448 µM | > 448 µM | – | > 448 µM | – | – | – | – | – | –
Cc1ccc(S(=O)(=O)c2c3[nH]c4ccccc4nc3n3c2nc2ccccc23)cc1 | > 100 µM | > 100 µM | > 100 µM | > 100 µM | > 100 µM | > 100 | > 100 | – | – | > 100 µM | – | – | > 100 µM | – | – | – | – | – | –
CC1=NN(C(=O)c2ccc(Cl)cc2)C(=O)/C1=C/c1ccc(O)cc1 | > 100 µM | > 100 µM | > 100 µM | > 100 µM | > 100 µM | – | > 100 | – | > 100 µM | > 100 µM | > 100 µM | – | > 100 µM | – | – | – | – | – | –
N/C(COc1ccc(Cl)cc1)=N\NC(=O)c1ccncc1 | > 100 µM | > 100 µM | > 100 µM | > 100 µM | > 100 µM | – | > 100 | > 100 | > 100 µM | > 100 µM | > 100 µM | > 100 | > 100 µM | – | – | – | – | – | –
CC(C)CCCC(C)[C@H]1CC[C@H]2[C@@H]3CC[C@H]4C[C@@H](CCC=C(c5cc(Cl)c(O)c(C(=O)O)c5)c5cc(Cl)c(O)c(C(=O)O)c5)CC[C@]4(C)[C@H]3CC[C@]12C (stereo partly drawn) (tested in a mixture with another compound) | > 50 µM | – | > 50 µM | > 50 µM | > 50 µM | – | > 50 | > 50 | > 50 µM | > 50 µM | > 50 µM | > 50 | > 50 µM | – | – | – | – | – | –
COc1cc(C2c3cc4c(cc3[C@@H](NCCCN(C)C)[C@H]3COC(=O)C23)OCO4)cc(OC)c1O (stereo partly drawn) | 1.46 µM and 5.09 µM | 7.25 µM and 10.3 µM | 3.93 µM and 5.78 µM | 1.05 µM and 0.981 µM | 5.17 µM and 7.61 µM | – | – | – | > 37.5 µM and 6.09 µM | 0.927 µM and 2.11 µM | 0.632 µM and 1.42 µM | – | > 37.5 µM and 7.84 µM | 0.733 µM and 1.96 µM | 1.03 µM and 2.1 µM | 0.714 µM and 1.94 µM | 0.992 µM and 2.86 µM | 0.354 µM and 0.0544 µM | 0.831 µM and 0.413 µM
C=CCCCCCC(O)C(O)C/C=C\C/C=C\CC (stereo not drawn) | > 18.8 µM | > 18.8 µM | > 18.8 µM | > 18.8 µM | > 18.8 µM | > 18.8 | > 18.8 | – | > 18.8 µM | > 18.8 µM | > 18.8 µM | – | > 18.8 µM | – | – | – | – | – | –
C/C(=N\NC(=S)NNC(=S)N(C)c1ccccc1)c1ccccn1 | > 100 µM | > 100 µM | > 100 µM | 11.1 µM | > 100 µM | – | – | > 100 | > 100 µM | – | > 100 µM | > 100 | > 100 µM | – | – | – | – | – | –
COc1cccc(C[C@H]2COC(=O)[C@]2(O)Cc2cccc(OC)c2)c1 | > 100 µM | > 100 µM | > 100 µM | > 100 µM | > 100 µM | > 100 | > 100 | – | > 100 µM | > 100 µM | > 100 µM | > 100 | > 100 µM | – | – | – | – | – | –
CC(C)(c1ccc(OC#N)cc1)c1ccc(OC#N)cc1 | > 100 µM | > 100 µM | > 67.7 µM | > 100 µM | > 100 µM | 50.5 | > 73.7 | – | > 100 µM | > 70.8 µM | > 100 µM | – | > 100 µM | – | – | – | – | – | –
CCOC(=O)/C=C/c1c[nH]c(C(=O)OCC)c1 | > 100 µM | > 100 µM | > 100 µM | > 100 µM | – | – | > 100 | > 100 | > 100 µM | > 100 µM | > 100 µM | – | > 100 µM | – | – | – | – | – | –
Cc1cc(C)c(NS(=O)c2cccc(Cl)c2)c(C)c1 (stereo not drawn) | – | > 100 µM | > 100 µM | > 100 µM | > 100 µM | > 100 | > 100 | > 100 | > 100 µM | – | > 100 µM | – | > 100 µM | – | – | – | – | – | –
COc1ccc2c(c1)CCCN1Cc3ccccc3CC21 (stereo not drawn) | – | > 100 µM | > 100 µM | > 100 µM | > 100 µM | – | > 100 | > 100 | > 100 µM | > 100 µM | > 100 µM | > 100 | > 100 µM | – | – | – | – | – | –
O=C(NCC(C(=O)OCc1ccccc1)C(=O)OCc1ccccc1)OCc1ccccc1 | > 100 µM | > 100 µM | > 100 µM | > 100 µM | > 100 µM | > 100 | – | > 100 | > 100 µM | – | > 100 µM | – | > 100 µM | – | – | – | – | – | –
Fc1ccc(Nc2nnc(-c3ccccn3)s2)cc1 | > 100 µM | > 100 µM | > 100 µM | > 100 µM | > 100 µM | – | > 100 | > 100 | > 100 µM | > 100 µM | > 100 µM | > 100 | – | – | – | – | – | – | –
N#CC(NNC(=O)c1ccccc1O)c1ccccc1 (stereo not drawn) | > 100 µM | > 100 µM | > 100 µM | > 100 µM | > 100 µM | 24.8 | > 100 | – | > 100 µM | > 100 µM | > 100 µM | – | > 100 µM | – | – | – | – | – | –
c1ccc2c3c([nH]c2c1)C1(CCCCC1)c1c([nH]c2ccccc12)C31CCCCC1 | 48.1 µM | > 100 µM | > 100 µM | – | 88.7 µM | 58.9 | > 100 | – | > 100 µM | > 100 µM | 56.8 µM | – | > 100 µM | – | – | – | – | – | –
O=C(CC(C(=O)c1cccs1)c1ccsc1)c1ccco1 (stereo not drawn) | – | > 100 µM | 95.5 µM | 98.2 µM | > 100 µM | > 100 | 50.1 | 42.3 | 29.7 µM | > 100 µM | > 100 µM | – | – | – | – | – | – | – | –
